Reference: EP0029617A1, “Use of tertiary heterocyclic amines as synergists in pesticides; derivatives of cycloamines” (priority 1979, dated 1981)

Test system: Kornkäfer (sitophilus granarius L)
Test: whole plant or invertebrate
Assay type: in vivo
Details: for mortality at 1000 µg/mL / Wirksamkeit in % Substanz allein: amine 1 mg/ml in Aceton mixed 1 : 1 with Aceton, 2 ml per dish, 25 weevils, dead counted after 3 h; for mortality at 1000 µg/mL: read-out: Wirksamkeit in % Substanz allein; for Wirksamkeit in % Substanz +Ripcord: amine 1 mg/ml mixed 1 : 1 with Ripcord 0,01 mg/ml; for Wirksamkeit in % Substanz +Talcord: amine 1 mg/ml mixed 1 : 1 with Talcord 0,01 mg/ml
Method: Test von tertiären, heterocyclischen Aminen allein und im Gemisch mit Pyrethroiden an Kornkäfern (sitophilus granarius L)
In Petrischalen mit 15 cm Durchmesser mit talcumbepuderten Seitenwänden, um das Entfliehen der Kornkäfer zu verhindern, wurden jeweils 2 ml der Acetonlösungen einpipettiert und durch vorsichtiges Schwenken der Schalen gleichmäßig auf dem Boden verteilt. Nach dem Abdampfen des Acetons und dem Antrocknen der Beläge wurden in jede Schale 25 Kornkäfer eingezählt. Nach einer Stunde wurde jeweils ein 12,5 cm Rundfilter in die Schalen eingelegt, um den Käfern das Befreien aus der Rückenlage zu ermöglichen, was auf der glatten Glasplatte nicht möglich ist. Die lichtscheuen Käfer verkrochen sich mit Vorliebe unter die Filter und blieben so ständig mit den Wirkstoffbelägen in Kontakt. Alle Versuche liefen mit 3 Wiederholungen. Nach 3 h wurden die toten Käfer ausgezählt.
In der Tabelle 3 ist jeweils der Durchschnitt der Summe der 4 Einzelwerte angegeben. 25 tote Kornkäfer entsprechen dabei einer Wirkung von 100 %. Die Temperaturen betrugen während der Tests im Durchschnitt 19 - 21°C. Der synergistische Faktor berechnet sich analog wie in Beispiel 1 angegeben.
Die zu prüfenden tertiären, heterocyclischen Amine wurden - mit 1 mg Wirkstoff pro ml als Acetonlösungen angesetzt. Sie wurden im Verhältnis 1 : 1 mit Ripcord bzw. Talcord, die mit 0,01 mg Wirkstoff pro ml als Acetonlösung vorlagen, gemischt. Die Einzelkomponenten wurden im Verhältnis 1 : 1 mit Aceton gemischt.
Auch bei diesen Versuchen zeigten die Kontrollversuche stets bei Versuchsende eine Mortalität der Kornkäfer von 0 %.
Die synergistische Wirkung der tertiären, heterocyclischen Amine auf die Pyrethroide ist auch dann noch deutlich, wenn das Amin in wesentlich niederen Aufwandmengen eingesetzt wird, als dies in Beispiel 3 beschrieben wurde. Die Ergebnisse sind in der Tabelle 4 zusammengestellt. Dieser Versuch zeigt auch, daß Amine mit insektiziden Eigenschaften, wenn sie in Konzentrationen unterhalb ihres insektiziden Wirkungsbereiches eingesetzt werden, immer noch gute synergistische Wirkungen im Gemisch mit Pyrethroiden zeigen. Die Versuche wurden wie im Beispiel 3 beschrieben mit Kornkäfern durchgeführt. Es wurden lediglich die Konzentrationen der eingesetzten tertiären, heterocyclischen Amine geändert. Für die Verdünnung Pyrethroid : Amin = 1 : 10 wurde das Amin mit 0,1 mg Wirkstoff/ml Acetonlösung eingesetzt. Für die Verdünnung 1 : 5 mit 0,05 mg Wirkstoff/ml.

[1] = amine 1 mg/ml + Ripcord 0,01 mg/ml
[2] = amine 1 mg/ml + Talcord 0,01 mg/ml
[3] = Pyrethroid : Amin 1 : 10, amine 0,1 mg/ml, 180 min

Compound | mortality at 1000 µg/mL (Sitophilus granarius) | Synergistischer Faktor bei Ripcord [1] | Synergistischer Faktor bei Talcord [2] | Wirksamkeit in % Substanz +Ripcord (3 h) | Wirksamkeit in % Substanz +Talcord (3 h) | % Wirkung Substanz +Ripcord [3] | % Wirkung Substanz +Talcord [3] | mortality at 100 µg/mL (Sitophilus granarius, 3 h, amine 0,1 mg/ml (as for Pyrethroid : Amin 1 : 10), read-out: % Wirkung Substanz allein) | Wirksamkeit in % Substanz allein | Synergistischer Faktor bei Ripcord (in vivo) | Synergistischer Faktor bei Talcord (in vivo) | Wirksamkeit von Ripcord (Ripcord alone, 0,01 mg/ml mixed 1 : 1 with Aceton, 3 h) | Wirksamkeit von Talcord (Talcord alone, 0,01 mg/ml mixed 1 : 1 with Aceton, 3 h)
CCC1CCCCN1Cc1ccccc1 (stereo not drawn) [N-Benzyl-2-ethyl-piperidin] | 0% | 2,50 | 1,53 | 78,8% | 14,8% |  |  |  |  |  |  |  | 
c1ccc(CN2CCOCC2)cc1 [N-Benzyl-morpholin] | 0% | 1,43 | 2,19 | 45,2% | 21,2% |  |  |  |  |  |  |  | 
c1ccc(CN2CCCCC2)cc1 [N-Benzyl-piperidin] | 0% |  |  | 94,8% | 32,0% | 100,0% | 73,2% | 0% |  |  |  |  | 
c1ccc(CN2CCCC2)cc1 [N-Benzyl-pyrrolidin] | 0% | 2,45 | 1,65 | 77,2% | 16,0% |  |  |  |  |  |  |  | 
C(=Cc1ccccc1)CN1CCOCC1 [N-Cinnamyl-morpholin] | 0% | 1,74 | 4,54 | 54,8% | 44,0% |  |  |  |  |  |  |  | 
C1CCCC(N2CCOCC2)CC1 [N-Cycloheptyl-morpholin] | 0% | 1,78 | 3,59 | 56,0% | 34,8% |  |  |  |  |  |  |  | 
C1CCC(N2CCCC2)CC1 [N-Cyclohexyl-pyrrolidin] | 0% | 2,16 | 1,72 | 68,0% | 17,2% |  |  |  |  |  |  |  | 
CN(C)C(=O)N1CCCCCC1 [N-Dimethyl-carbamoyl-hexa-methylenimin] |  | 2,45 | 5,48 | 77,2% | 53,2% |  |  |  | 0% |  |  |  | 
CN(C)C(=O)N1CCCCC1 [N-Dimethyl-carbamoyl-piperidin] |  | 1,69 | 6,60 | 53,2% | 64,0% |  |  |  | 0% |  |  |  | 
c1ccc(C(c2ccccc2)N2CCOCC2)cc1 [N-Diphenyl-methyl-morpholin] |  | 2,29 | 4,12 | 72,0% | 40,0% |  |  |  | 0% |  |  |  | 
OCCN1CCOCC1 [N-Ethanol-morpholin] |  | 2,12 | 4,0 | 66,8% | 38,8% |  |  |  | 0% |  |  |  | 
CC(C)=CCCC(C)=CCCC(C)=CCN1CCCCC1 [N-Farnesyl-piperidin] | 0% | 2,67 | 4,25 | 84,0% | 41,2% |  |  |  |  |  |  |  | 
N#CCN1CCCCCC1 [N-Hexamethylenimino-aceto-nitril] |  | 1,69 | 1,53 | 53,2% | 14,8% |  |  |  | 0% |  |  |  | 
CCOC(=O)CCN1CCOCC1 [N-Morpholino-propionsäure-ethylester] |  | 2,07 | 2,76 | 65,2% | 26,8% |  |  |  | 0% |  |  |  | 
CCCCCC(C=O)CN1CCCCC1 (stereo not drawn) [N-Piperidino-methyl-heptanal] |  |  |  | 49,2% | 60,0% |  |  |  | 0% | 1,56 | 6,19 |  | 
OCC(CO)(CO)CN1CCCCC1 [N-Piperidino-pentaerythrit] |  | 1,99 | 3,30 | 62,8% | 32,0% |  |  |  | 0% |  |  |  | 
c1cc2c(cc1CN1CCCCCC1)OCO2 [N-Piperonyl-hexamethylenimin] | 0% | 3,05 | 7,01 | 96,0% | 68,0% |  |  |  |  |  |  |  | 
c1cc2c(cc1CN1CCOCC1)OCO2 [N-Piperonyl-morpholin] | 0% | 2,32 | 3,84 | 73,2% | 37,2% |  |  |  |  |  |  |  | 
CCC(CC)N1CCCC1 [Pentyl-(3)-N-pyrrolidin] |  | 2,67 | 4,82 | 84,0% | 46,8% |  |  |  | 0% |  |  |  | 
O=C(OCc1ccccc1)C(c1ccccc1)N1CCCCC1 (stereo not drawn) [Phenyl-N-piperidino-essig-säure-benzylester] |  | 3,05 | 2,89 | 96,0% | 28,0% |  |  |  | 0% |  |  |  | 
CCOC(=O)C(c1ccccc1)C(C(=O)OCC)N1CCCC1 (stereo not drawn) [Phenyl-N-pyrrolidin-bern-steinsäure-diethylester] |  | 2,79 | 2,76 | 88,0% | 26,8% |  |  |  | 0% |  |  |  | 
CCOC(=O)C(c1ccccc1)N1CCCC1 (stereo not drawn) [Phenyl-N-pyrrolidin-essigsäure-ethylester] |  | 2,92 | 2,60 | 92,0% | 25,2% |  |  |  | 0% |  |  |  | 
CC1(C)C(C=C(Cl)Cl)C1C(=O)OC(C#N)c1cccc(Oc2ccccc2)c1 (stereo not drawn) [Ripcord, reference compound] |  |  |  |  |  |  |  |  |  |  |  | Wirksamkeit von Ripcord: 31,5% | 
CC1(C)C(C=C(Cl)Cl)C1C(=O)OCc1cccc(Oc2ccccc2)c1 (stereo not drawn) [Talcord, reference compound] |  |  |  |  |  |  |  |  |  |  |  |  | Wirksamkeit von Talcord: 9,7%
CCC/C=C(\CC)CN1CCCC1 [cis-3-N-pyrrolidino-methyl-hepten-(3)] |  | 1,61 | 1,65 | 50,8% | 16,0% |  |  |  | 0% |  |  |  | 
CC(C)=CCC/C(C)=C\CN1CCCCC1 [cis-8-N-Piperidino-2,6-di-methyl-octadien-(2,6)] |  | 2,16 | 2,76 | 68,0% | 26,8% |  |  |  | 0% |  |  |  | 
N-Hydrinden-morpholin |  | 1,40 | 3,17 | 44,0% | 30,8% |  |  |  | 0% |  |  |  | 
N-Hydrinden-piperidin |  | 1,36 | 5,90 | 42,8% | 57,2% |  |  |  | 0% |  |  |  | 
N-Lactosido-pyrrolidin |  | 2,70 | 2,06 | 85,2% | 20,0% |  |  |  | 0% |  |  |  | 
